# Measurements taken from EP4455142A1, “NOVEL INHIBITOR OF QPCTL AND/OR QC” (Scenic Immunology B.V., priority 2023, dated 2024).
# Tests used:
# [1] = Microsomal stability, mouse (MLM); assay type: in vitro ADME, CD-1 mouse; details: mouse liver microsomes, 0.5 mg protein/mL, 1 µM test compound
# Description: (§1) In order to assess metabolic stability of test compounds, commercially acquired CD-1 mouse liver microsome preparations were incubated in 100 µL at a final concentration of 0.5 mg protein/mL, 1 µM test compound, 0.99% methanol and 0.01% DMSO, after a 10 minute pre-incubation at 37°C and addition of 0.1 volumes 10 U/mL NADPH in 10 mM MgCl2. Reactions were stopped by addition of 300 µL cold acetonitrile containing internal standards at t = 0, 5, 10, 20, 30, and 60 minutes. Samples were submitted to LC-MS/MS analysis subsequently and the slope of linear regression of time versus In(% Remaining concentration) was derived to calculate t½ as t½= In(2) /(-Slope). Then Clint(mic) and Clint(liver) were calculated as follows: CLint(mk) = (0.693)/(In vitro T1/2) · (1)/(mg/mL microsomal protein in reaction system) [formula] CLint(liver) = CLint(mic) · (mg microsomes)/(g liver) · (g liver)/(kg body weight) [formula]
# Where 45 mg microsomal protein/g liver and 88 g liver/kg mouse bodyweight were used as standardized parameters for mouse microsomes.
# Kinetic solubility = assay type: physicochemical; details: aqueous buffer; 50 mM phosphate buffer (pH 7.4), 24 hours at room temperature
# Description: To assess the solubility of test compounds 10 µL of a 10 mM solution in DMSO was added to the lower chamber of a whatman miniuniprep (PTFE Filter Media with Polypropylene Housing) vial. 490 µL of 50 mM phosphate buffer (pH 7.4) was added to the lower chamber, the samples were vortexed for at least two minutes and then shaken on a shaker for 24 hours at room temperature at the speed of 880 rpm. The samples were then centrifuged for 20 minutes at 4000 rpm, compressed and the filtrates were injected into a HPLC-UV and LC-MS/MS system to calculate the concentration compared to the standard curve using a ACQUITY UPLC BEH C18 1.7 µm 2.1 * 50 mm column.
# [2] = CACO-2-based cell-permeation and efflux; assay type: in vitro ADME; details: human, 2 µM compound, pH 7.40
# Description: CACO-2 (ATCC, Manassas, VA, USA) monolayers on polyethylene membranes in 96-well insert plates were incubated for 2 hours in 5% C02, 37°C with 2 µM compound tested bidirectionally in duplicate using HBSS with 10 mM HEPES at pH 7.40 ±0.05 as transport buffer. Final DMSO Concentrations were adjusted to less than 1%. All samples were mixed with acetonitrile containing internal standard and centrifuged at 3220 x g for 10 minutes. Subsequently, 100 µL supernatant solution was diluted with 100 µL distilled water for LC/MS/MS analysis. Lucifer yellow rejection assays were applied after the transport assay to ensure CACO-2 cell monolayer integrity.
# The apparent permeability coefficient Papp (cm/s) was calculated using the equation: Papp = (dCr/dt) × Vr/(A×CO) [formula] where dCr/dt is the cumulative concentration of compound in the receiver chamber as a function of time (µM/s); Vr is the solution volume in the receiver chamber (0.075 mL on the apical side, 0.25 mL on the basolateral side); A is the surface area for the transport, i.e., 0.0804 cm^2 or the area of the monolayer; CO is the initial concentration in the donor chamber (µM).
# human isoQC = target: T1, human isoQC (Homo sapiens, UniProt Q9NXS2); assay: Assay 1 - isoQC potency, fluorescent enzymatic assay (H-Gln-AMC, coupled pGAPase detection); assay type: biochemical; details: recombinant isoQC, 1 hour at 37°C
# T1 construct: The Golgi luminal, enzymatically active region of human isoQC (S53-L382; see, e.g., Huang et al., 2011); GST (with enterokinase site) (N, cleaved yes); made in house; host or cells: E. coli
# T1 sequence (Q9NXS2 53-382): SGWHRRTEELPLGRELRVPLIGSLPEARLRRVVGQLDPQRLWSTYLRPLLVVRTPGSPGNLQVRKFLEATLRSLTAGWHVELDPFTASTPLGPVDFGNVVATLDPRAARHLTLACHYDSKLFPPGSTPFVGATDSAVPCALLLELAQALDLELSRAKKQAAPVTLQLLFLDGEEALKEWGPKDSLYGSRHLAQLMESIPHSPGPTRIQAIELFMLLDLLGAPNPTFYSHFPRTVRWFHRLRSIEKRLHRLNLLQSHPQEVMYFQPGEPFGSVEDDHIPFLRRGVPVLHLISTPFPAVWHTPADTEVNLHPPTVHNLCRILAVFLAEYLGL
# From the text: The Golgi luminal, enzymatically active region of human isoQC (S53-L382; see, e.g., Huang et al., 2011) was obtained by expression in E. coli of an N-terminally GST Enterokinase and C-terminally 6xHis tagged construct in the pET41(+) vector and subsequent purification using Ni-NTA IMAC. Enterokinase digestion ensued, followed by another Ni-NTA IMAC purification, Superdex75 based size exclusion and finally a spin concentration using a 10 kDa molecular weight cutoff. The final protein is formulated in 50 mM Tris-HCl, 150 mM NaCl, 50% Glycerol, pH 7.8.
# (§2) Pyroglutamylation was measured by conversion of glutamine-4-amino-7-methylcoumarine (H-Gln-AMC, Bachem) to pyroglutamyl-AMC, which is subsequently a specific substrate for pyroglutamylaminopeptidase (pGAPase, Qiagen), releasing free AMC which can be fluorescently detected. For a typical inhibition assay, 7.5 µL aliquots of threefold dilutions of test compound in 50mM Tris pH8 buffer were plated in 384-well plates. 15 µL 20 µM hGln-AMC (diluted from a 40 mM stock dissolved in 25 mM HEPES using 50 mM Tris-HCl 25 pH 8.0) was added to each well. Finally, 7.5 µL, 3 ng/µL recombinant isoQC enzyme was added and the reaction mixture was incubated for 1 hour at 37°C. A 5 minute incubation at 98°C was then performed to denature the isoQC enzyme and stop the reaction.
# To detect the amount of pyroglutamyl-AMC formed, a 0.125 U/mL pGAPase enzyme diluted in 50 mM Tris-HCl pH 8.0 containing 10 mM dithiothreitol (DTT) solution was prepared. 25 µL of the pyroglutamylation reaction mixture was transferred into an empty plate and to that, 25 µL of the pGAPase enzyme solution was added. Plates were then incubated for 25 minutes at room temperature before fluorescence readings were taken on an Envision2 plate reader with excitation set at 380 nm and emission at 450 nm. DMSO concentrations during the assay never exceeded 1% and activities were compared to controls containing only the same amount of DMSO and no test compound. Controls were taken along containing pyroglutamylated-AMC (Bachem, dissolved at 10 mM in DMSO) instead of H-Gln-AMC to control for pGAPase inhibition.
# (§3) IC50 values are calculated using non-linear regression analysis with GraphPad Prism software.
# [3] = Microsomal stability, rat (RLM); assay type: in vitro ADME; details: liver microsomes; SD rat microsomes, 0.5 mg protein/mL, 1 µM test compound
# Description: as §1
# (§4) The same procedure was performed for human microsomes, SD rat microsomes and (beagle) dog microsomes.
# Where 45 mg microsomal protein/g liver and 40 g liver/kg rat bodyweight were used as standardized parameters for rat microsomes.
# recombinant QC enzyme = target: T2, recombinant QC enzyme (Homo sapiens, UniProt Q16769); assay: Assay 2 - QC potency, fluorescent enzymatic assay (H-Gln-AMC, coupled pGAPase detection); assay type: biochemical; details: 1 hour at 37°C
# T2 construct: bacterial expression of residues 33-361 of uniprot ID Q16769, fused to a His tag; His tag (cleaved yes); made in house
# T2 sequence (Q16769 33-361): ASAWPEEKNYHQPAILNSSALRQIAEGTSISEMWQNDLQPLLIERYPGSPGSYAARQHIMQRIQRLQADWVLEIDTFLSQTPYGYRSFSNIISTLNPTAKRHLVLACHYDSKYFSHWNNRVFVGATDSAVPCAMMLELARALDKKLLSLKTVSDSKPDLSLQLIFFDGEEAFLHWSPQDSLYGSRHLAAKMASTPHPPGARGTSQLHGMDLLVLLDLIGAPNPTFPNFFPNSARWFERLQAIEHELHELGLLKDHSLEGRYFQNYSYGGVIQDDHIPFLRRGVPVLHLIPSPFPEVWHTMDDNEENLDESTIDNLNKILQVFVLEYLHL
# Description: After scale-up, expression and lysis, protein was purified by Ni-NTA IMAC, dialysed in the presence of Factor Xa, further purified by Ni-NTA reverse IMAC and finally filtrated for size on a Superdex 200 16/60 column. Final protein was concentrated using a spin concentrator at 10 kDa molecular weight cut-off and formulated in 150 mM NaCl, 50 mM Tris-HCl, 50% Glycerol, pH 8.0.
# as §2, with “50 mM” for “50mM”, “h-Gln-AMC” for “hGln-AMC”, “Tris-HCl” for “Tris-HCl 25”, “QC” for “isoQC”
# 25 µL of the pyroglutamylation reaction mixture was transferred into an empty plate and to that, 25 µL of the pGAPase enzyme solution was added. Plates were then incubated for 25 minutes at room temperature before fluorescence readings were taken on an Envision2 plate reader with excitation set at 380 nm and emission at 450 nm.
# Controls were taken along containing pyroglutamylated-AMC (Bachem, dissolved at 10 mM in DMSO) instead of H-Gln-AMC to control for pGAPase inhibition.
# as §3
# [4] = Microsomal stability, human (HLM); assay type: in vitro ADME; details: liver microsomes, 0.5 mg protein/mL, 1 µM test compound
# Description: as §1, §4
# Where 45 mg microsomal protein/g liver and 20 g liver/kg human bodyweight were used as standardized parameters for human microsomes.
# [5] = Microsomal stability, dog (DLM); assay type: in vitro ADME; details: liver microsomes; (beagle) dog microsomes, 0.5 mg protein/mL, 1 µM test compound
# Description: as §1, §4
# Where 45 mg microsomal protein/g liver and 32 g liver/kg dog bodyweight were used as standardized parameters for […].
smiles,measurement,setting,value
"O=C1OCC(c2cc(F)cc(C(F)(F)F)c2)N1c1ccc2[nH]cnc2c1 (single isomer, unassigned) [(17)-ent2]",CLint scaled at 1 µM,[1],182 mL/min/kg
same,solubility at 24 h,Kinetic solubility,39 µM
same,"Papp A→B at 2 h, 2 µM","[2]; Caco-2, pH 7.4, A2B",1.5 ×10⁻⁶ cm/s
same,"Papp B→A at 2 h, 2 µM","[2]; Caco-2, pH 7.4, B2A",36.8 ×10⁻⁶ cm/s
same,IC50,human isoQC,632 nM
same,CLint scaled at 1 µM,[3],49 mL/min/kg
same,IC50,recombinant QC enzyme,1080 nM
same,CLint scaled at 1 µM,[4],< 8.6 mL/min/kg
same,CLint scaled at 1 µM,[5],< 13.8 mL/min/kg
